In US20250113824A1, “WEED CONTROL METHOD” (SUMITOMO CHEMICAL COMPANY, LIMITED, priority 2018, published 2025):

What was measured:
[1] = test system: glyphosate-resistant weeds and volunteer glyphosate-tolerant soybean and cotton; test: Soil treatment pot test in greenhouse (Example 1); type: in vivo; settings: soil treated on day of seeding; 6.25, 12.5, 25, 50, 100 or 150 g/ha; 200 L/ha; twenty-eight days after treatment
Protocol: (§1) In a plastic pot are seeded glyphosate-resistant Amaranthus palmeri in which the number of copies of EPSPS gene has been increased, glyphosate-resistant waterhemp in which the number of copies of EPSPS gene has been increased, glyphosate-resistant kochia in which the number of copies of EPSPS gene has been increased, marestail which is resistant to glyphosate by involving an ABC transporter, Guernsey fleabane which is resistant to glyphosate by involving an ABC transporter, fleabane which is resistant to glyphosate by involving an ABC transporter, glyphosate-resistant goosegrass having Thr102Ile, glyphosate-resistant goosegrass having Pro106Ser, glyphosate-resistant goosegrass having Pro106Ala, glyphosate-resistant goosegrass having Pro106Leu, glyphosate-resistant goosegrass having Thr102Ile and Pro106Ser, glyphosate-resistant darnel having Thr102Ile, glyphosate-resistant darnel having Pro106Ser, glyphosate-resistant darnel having Pro106Ala, glyphosate-resistant darnel having Pro106Leu, volunteer glyphosate-tolerant soybean, and volunteer glyphosate-tolerant cotton. On the same day, the soil is treated with the present compound at the application rate of 6.25, 12.5, 25, 50, 100 or 150 g/ha. The amount of a liquid sprayed is 200 L/ha. Subsequently, the plants are cultivated in a greenhouse.

[2] = test system: glyphosate-resistant weeds and volunteer glyphosate-tolerant soybean and cotton; test: Foliar treatment pot test in greenhouse (Example 2); type: in vivo; settings: foliar application after 21 days cultivation; 6.25, 125, 25, 50, 100 or 150 g/ha; 200 L/ha; fourteen days after treatment
Protocol: as §1, with “The plants are cultivated in a greenhouse for 21 days, and then” for “On the same day, the soil is treated with”, “compound is applied to foliage of the plants” for “compound”, “at” for “at the”, “[…],” for “12.5,”

## CCOC(=O)COc1ncccc1Oc1cc(-n2c(=O)cc(C(F)(F)F)n(C)c2=O)c(F)cc1Cl [present compound, ethyl [3-[2-chloro-4-fluoro-5-(1-methyl-6-trifluoromethyl-2,4-dioxo-1,2,3,4-tetrahydropyrimidin-3-yl)phenoxy]-2-pyridyloxy]acetate]
[1]
  effect against the weeds: significant effect
[2]
  effect against the weeds: significant effect
